Results taken from article PMC12442245, “Activity Analysis of the P2X Receptor Antagonist PPADS against Signal Transducer and Activator of Transcription Proteins” (Chembiochem, 2025).
Where two headings read alike, the source gives them in different places.

Target: T1, STAT4 (Homo sapiens, UniProt Q14765)
T1 sequence (Q14765 1-748): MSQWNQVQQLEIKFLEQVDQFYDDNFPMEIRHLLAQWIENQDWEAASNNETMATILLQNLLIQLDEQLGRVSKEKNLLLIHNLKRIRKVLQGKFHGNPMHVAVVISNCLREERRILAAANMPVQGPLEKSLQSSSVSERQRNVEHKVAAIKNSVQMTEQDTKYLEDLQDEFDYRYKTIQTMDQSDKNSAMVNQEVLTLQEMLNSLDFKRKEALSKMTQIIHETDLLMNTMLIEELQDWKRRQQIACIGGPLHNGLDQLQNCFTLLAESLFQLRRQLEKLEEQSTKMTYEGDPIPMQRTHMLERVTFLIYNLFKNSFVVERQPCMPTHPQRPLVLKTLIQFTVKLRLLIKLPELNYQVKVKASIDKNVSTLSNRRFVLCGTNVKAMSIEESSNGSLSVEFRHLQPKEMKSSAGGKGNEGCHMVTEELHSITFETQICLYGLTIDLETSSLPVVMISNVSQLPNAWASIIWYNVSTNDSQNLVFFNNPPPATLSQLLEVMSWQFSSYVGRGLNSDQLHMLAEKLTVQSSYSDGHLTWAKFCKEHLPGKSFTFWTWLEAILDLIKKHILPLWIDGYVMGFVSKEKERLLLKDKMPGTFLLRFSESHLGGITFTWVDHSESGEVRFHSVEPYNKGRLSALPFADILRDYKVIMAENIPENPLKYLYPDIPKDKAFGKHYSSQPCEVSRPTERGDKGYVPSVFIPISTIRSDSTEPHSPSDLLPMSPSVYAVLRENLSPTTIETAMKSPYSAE
Assay: Competitive fluorescence polarization (FP) assay, STAT4
Type: binding
Procedure: Screening of chemical libraries […]
PPADS was purchased […]
from Sigma-Aldrich, and iso-PPADS from Bio-Techne.
Fluorescence polarization assays
Competitive fluorescence polarization (FP) assays for STAT1,[2] STAT3,[3] STAT4,[4] STAT5a,[5] STAT5b[6] and STAT6[1] were performed as previously described. Briefly, peptide binding to proteins was analyzed using the following carboxyfluorescein (CF) -labelled pepti des at a concentration of 10 nM: STAT1: 5-CF-GpYDKPHVL-OH, STAT3: 5-CF-GpYLPQTV -NH2, STAT4: 5-CF-GpYLPQNID-OH, STAT5a and STAT5b: 5-CF-GpYLVLDKW-OH, STAT6: 5- […]
CFGp[…]-OH. Proteins were used at a final concentration representing the approximate Kd value for binding of the corresponding peptide to the protein, namely 65 nM for STAT1, 65 nM for STAT3, 35 nM for STAT4, 125 nM for STAT5a, 65 nM for STAT5b and 75 nM for STAT6. Assays were carried out in buffer containing 10 mM Tris/HCl, 50 mM NaCl, 1 mM EDTA, 0.1% NP-40 substitute and 2% DMSO, with 1 mM reducing agent where […]
applicable, at pH 8.0. […]
before adding peptide and incubating for a further 1 h. FP was measured using an Infinite F500 plate reader (Tecan) and measurements were converted into percent inhibition according to […]

[1] = no reducing agent, 1 h, read-out: IC50 STAT4 (FP assay)

SMILES	IC50 (IC50 STAT4 (FP assay), 1 mM DTT, 1 hr)	IC50 (IC50 STAT4 (FP assay), 1 mM DTT, 2 hr)	IC50 (IC50 STAT4 (FP assay), 1 mM DTT, 3 hr)	IC50 (IC50 STAT4 (FP assay), 1 mM DTT, 4 hr)	IC50 (IC50 STAT4 (FP assay), 1 mM TCEP, 1 hr)	IC50 (IC50 STAT4 (FP assay), 1 mM TCEP, 2 hr)	IC50 (IC50 STAT4 (FP assay), 1 mM TCEP, 3 hr)	IC50 (IC50 STAT4 (FP assay), 1 mM TCEP, 4 hr)	IC50 [1]	IC50 (no reducing agent, 2 hr, read-out: IC50 STAT4 (FP assay), no reducing agent)	IC50 (no reducing agent, 3 hr, read-out: IC50 STAT4 (FP assay), no reducing agent)	IC50 (no reducing agent, 4 hr, read-out: IC50 STAT4 (FP assay), no reducing agent)
Cc1nc(/N=N/c2ccc(S(=O)(=O)O)cc2S(=O)(=O)O)c(COP(=O)(O)O)c(C=O)c1O [PPADS, pyridoxalphosphate‐6‐azophenyl‐2',4'‐disulfonic acid]	1.7 ± 0.3 µM	2.5 ± 0.4 µM	3.7 ± 0.6 µM	4.9 ± 0.9 µM	2.4 ± 0.3 µM	2.4 ± 0.2 µM	2.5 ± 0.4 µM	2.8 ± 0.5 µM	2.2 ± 0.2 µM	2.4 ± 0.3 µM	2.6 ± 0.3 µM	2.4 ± 0.1 µM
Cc1nc(/N=N/c2cc(S(=O)(=O)O)ccc2S(=O)(=O)O)c(COP(=O)(O)O)c(C=O)c1O [iso‐PPADS]									1.9 ± 0.2 µM			
